In ChEMBL document CHEMBL5505987 (Eur J Med Chem, 2024):
The source made the active and inactive calls. The rule behind the calls is not given here.

Legend:
[1] = test system: 4T1; test: Induction of cell cycle arrest in mouse 4T1 cells assessed as accumulation of cells at G0/G1 phase at 1.5 uM measured after 24 hrs by PI staining by flow cytometry; assay type: functional
[2] = test system: 4T1; test: Induction of cell cycle arrest in mouse 4T1 cells assessed as accumulation of cells at G0/G1 phase at 6 uM measured after 24 hrs by PI staining by flow cytometry; assay type: functional
[3] = test system: MDA-MB-231; test: Induction of cell cycle arrest in human MDA-MB-231 cells assessed as reduction in cyclin D1 expression at 1 to 4 uM measured after 24 hrs by immunoblotting assay; assay type: functional, cell-based; settings: dose 1-4 µM
[4] = test system: MDA-MB-231; test: Induction of cell cycle arrest in human MDA-MB-231 cells assessed as reduction in cyclin E1 expression at 1 to 4 uM measured after 24 hrs by immunoblotting assay; assay type: functional, cell-based; settings: dose 1-4 µM
[5] = test system: MDA-MB-231; test: Induction of cell cycle arrest in human MDA-MB-231 cells assessed as reduction in CDK6 expression at 1 to 4 uM measured after 24 hrs by immunoblotting assay; assay type: functional, cell-based; settings: dose 1-4 µM
[6] = test system: MDA-MB-231; test: Induction of cell cycle arrest in human MDA-MB-231 cells assessed as reduction in p-Rb expression at 1 to 4 uM measured after 24 hrs by immunoblotting assay; assay type: functional, cell-based; settings: dose 1-4 µM
[7] = test system: MDA-MB-231; test: Induction of cell cycle arrest in human MDA-MB-231 cells assessed as upregulation of p21 protein expression at 1 to 4 uM measured after 24 hrs by immunoblotting assay; assay type: functional, cell-based; settings: dose 1-4 µM
[8] = test system: MDA-MB-231; test: Reduction of ATP level in human MDA-MB-231 cells incubated for 24 hrs by colorimetric based ATP Content Assay Kit; assay type: functional, cell-based; settings: dose 1-4 µM
[9] = test system: 4T1; test: Reduction of ATP level in mouse 4T1 cells incubated for 24 hrs by colorimetric based ATP Content Assay Kit; assay type: functional, cell-based; settings: dose 1-4 µM
[10] = test system: MDA-MB-231; test: Induction of ROS production in human MDA-MB-231 cells at 1 to 4 uM incubated for 24 hrs by flow cytometry; assay type: functional, cell-based; settings: dose 1-4 µM
[11] = test system: 4T1; test: Induction of ROS production in mouse 4T1 cells at 1 to 4 uM incubated for 24 hrs by flow cytometry; assay type: functional, cell-based; settings: dose 1-4 µM
[12] = test system: MDA-MB-231; test: Induction of mitochondrial membrane potential loss in human MDA-MB-231 cells assessed as increase in fluorescence intensity by JC-1 monomer assay; assay type: functional, cell-based; settings: dose 2-4 µM
[13] = test system: MDA-MB-231; test: Induction of mitochondrial membrane potential loss in human MDA-MB-231 cells assessed as decrease in fluorescence intensity by JC-1 aggregate assay; assay type: functional, cell-based; settings: dose 2-4 µM
[14] = test system: 4T1; test: Induction of mitochondrial membrane potential loss in mouse 4T1 cells assessed as increase in fluorescence intensity by JC-1 monomer assay; assay type: functional, cell-based; settings: dose 2-4 µM
[15] = test system: 4T1; test: Induction of mitochondrial membrane potential loss in mouse 4T1 cells assessed as decrease in fluorescence intensity by JC-1 aggregate assay; assay type: functional, cell-based; settings: dose 2-4 µM
[16] = test system: MDA-MB-231; test: Induction of DNA damage in human MDA-MB-231 cells assessed as increase in gamma-H2AX focal expression at 2 to 4 uM by immunofluorescence staining assay; assay type: functional, cell-based; settings: dose 2-4 µM
[17] = test system: 4T1; test: Induction of DNA damage in mouse 4T1 cells assessed as increase in gamma-H2AX focal expression at 2 to 4 uM by immunofluorescence staining assay; assay type: functional, cell-based; settings: dose 2-4 µM
[18] = test system: MDA-MB-231; test: Anti-tumor activity against human MDA-MB-231 cells assessed as change in expression of genes involved in TGF-beta1/Smad signaling pathway measured after 24 hrs incubation by RNA-Seq analysis; assay type: functional, cell-based
[19] = test system: MDA-MB-231; test: Anti-tumor activity against human MDA-MB-231 cells assessed as change in TGF-beta1/Smad signaling pathway by measuring increase in TGF-beta1 level after 24 hrs incubation by Western blot analysis; assay type: functional, cell-based; settings: dose 1-4 µM
[20] = test system: MDA-MB-231; test: Anti-tumor activity against human MDA-MB-231 cells assessed as change in TGF-beta1/Smad signaling pathway by measuring increase in p-Smad2 level after 24 hrs incubation by Western blot analysis; assay type: functional, cell-based; settings: dose 1-4 µM
[21] = test system: MDA-MB-231; test: Anti-tumor activity against human MDA-MB-231 cells assessed as change in TGF-beta1/Smad signaling pathway by measuring increase in p-Smad3 level after 24 hrs incubation by Western blot analysis; assay type: functional, cell-based; settings: dose 1-4 µM
[22] = test system: MDA-MB-231; test: Anti-tumor activity against human MDA-MB-231 cells assessed as change in TGF-beta1/Smad signaling pathway by measuring fluorescence intensity of TGF-beta1 level at 2 to 4 uM after 24 hrs incubation by immunofluorescence staining assay; assay type: functional, cell-based; settings: dose 2-4 µM
[23] = test system: MDA-MB-231; test: Anti-tumor activity against human MDA-MB-231 cells assessed as change in TGF-beta1/Smad signaling pathway by measuring fluorescence intensity of p-Smad2 level at 2 to 4 uM after 24 hrs incubation by immunofluorescence staining assay; assay type: functional, cell-based; settings: dose 2-4 µM
[24] = test system: MDA-MB-231; test: Anti-tumor activity against human MDA-MB-231 cells assessed as change in TGF-beta1/Smad signaling pathway by measuring fluorescence intensity of p-Smad3 level at 2 to 4 uM after 24 hrs incubation by immunofluorescence staining assay; assay type: functional, cell-based; settings: dose 2-4 µM
[25] = test system: MDA-MB-231; test: Induction of cell cycle arrest in human MDA-MB-231 cells assessed as accumulation of cells at G0/G1 phase measured after 24 hrs in presence of SB-431542 TGF-beta signaling inhibitor by PI staining by flow cytometry; assay type: functional, cell-based
[26] = test system: MDA-MB-231; test: Anti-tumor activity against human MDA-MB-231 cells assessed as decrease in cell viability at 8 uM incubated for 24 hrs in presence of SB-431542 TGF-beta signaling inhibitor by MTT assay; assay type: functional, cell-based
[27] = test system: 4T1; test: Anti-tumor activity against mouse 4T1 cells assessed as decrease in cell viability at 8 uM incubated for 24 hrs in presence of SB-431542 TGF-beta signaling inhibitor by MTT assay; assay type: functional, cell-based
[28] = test system: MDA-MB-231; test: Induction of apoptosis in human MDA-MB-231 cells assessed as increase in apoptotic rate incubated for 24 hrs in presence of SB-431542 TGF-beta signaling inhibitor by Annexin V-FITC/PI double staining by flow cytometry; assay type: functional, cell-based
[29] = test system: 4T1; test: Induction of apoptosis in mouse 4T1 cells assessed as increase in apoptotic rate incubated for 24 hrs in presence of SB-431542 TGF-beta signaling inhibitor by Annexin V-FITC/PI double staining by flow cytometry; assay type: functional, cell-based
[30] = test system: 4T1; test: Induction of cell cycle arrest in mouse 4T1 cells assessed as accumulation of cells at G0/G1 phase measured after 24 hrs in presence of SB-431542 TGF-beta signaling inhibitor by PI staining by flow cytometry; assay type: functional, cell-based

Question: For O=C1C[C@@H](c2ccccc2)Oc2cc(O)c([C@H](/C=C/C[C@@H](O)CCc3ccccc3)c3ccccc3)c(O)c21, which Activity [1] is on record?
Answer: 55.78%

Question: What about the Activity [2] of the same compound?
Answer: 78.34%

Question: What about the Activity [3] of the same compound?
Answer: Active

Question: And the Activity [4]?
Answer: Active

Question: What about the Activity [5] of the same compound?
Answer: Active

Question: What about the Activity [6] of the same compound?
Answer: Active

Question: And the Activity [7]?
Answer: Active

Question: What about the inhibition [8] of the same compound?
Answer: Active

Question: And the inhibition [9]?
Answer: Active

Question: And the Activity [10]?
Answer: Active

Question: And the Activity [11]?
Answer: Active

Question: And the Activity [12]?
Answer: Dose-Dependent Effect

Question: What about the Activity [13] of the same compound?
Answer: Dose-Dependent Effect

Question: And the Activity [14]?
Answer: Dose-Dependent Effect

Question: What about the Activity [15] of the same compound?
Answer: Dose-Dependent Effect

Question: And the Activity [16]?
Answer: Active

Question: And the Activity [17]?
Answer: Active

Question: And the Activity [18]?
Answer: Active

Question: And the Activity [19]?
Answer: Dose-Dependent Effect

Question: And the Activity [20]?
Answer: Dose-Dependent Effect

Question: What about the Activity [21] of the same compound?
Answer: Dose-Dependent Effect

Question: What about the Activity [22] of the same compound?
Answer: Active

Question: What about the Activity [23] of the same compound?
Answer: Active

Question: What about the Activity [24] of the same compound?
Answer: Active

Question: And the Activity [25]?
Answer: inactive

Question: And the Activity [26]?
Answer: inactive

Question: And the Activity [27]?
Answer: inactive

Question: And the Activity [28]?
Answer: inactive

Question: What about the Activity [29] of the same compound?
Answer: inactive

Question: And the Activity [30]?
Answer: inactive
